Experimental data reported in patent US20110142884A1, “Materials and Methods for Making Improved Micelle Compositions” (The Board of Trustees of the University of Illinois, priority 2002, published 2011).
Converted amounts (≈) assume the structure as drawn. Blank lines part the entries; values can stand above or below the compound they belong to.

Key:
physchem = conditions: for solubility: aqueous with cosolvent or surfactant or cyclodextrin
Experimental: Solubilization potential of both micelle compositions for a model drug was measured by HPLC after separation of the unincorporated drug.
Excess drug was removed by centrifugation and the supernatant was analyzed by HPLC. […] HPLC eluent was measured with adsorption at 254 nm.
According to this example, micelle compositions of the invention were further characterized. Particularly, the physiochemical properties of sterically stabilized micelles prepared with DSPE conjugated to molecular weight 2000, 3000, and 5000 PEG were analyzed. The critical micelle concentration (CMC) of phospholipids was determined at pH 7.4 and 25° C. using a water-insoluble fluorescent probe (1,6-diphenyl-1,3,5-hexatriene). Micellar size was determined by quasi-elastic light scattering.
The solvent was then removed by vacuum rotary evaporation under a stream of argon to form a dry film. This dry film was further dried under vacuum overnight to remove any traces of remaining solvent. The dried film was rehydrated with isotonic 0.01M HEPES buffer, pH 7.4. The solution was then flushed with argon, sealed and equilibrated for 12 h at room temperature. The unsolubilized excess paclitaxel was removed by centrifugation at 13,000 g for 5 min to obtain a clear dispersion.
The solubilization potentials of SSMM and SSM for paclitaxel were determined by RP-HPLC. The clear aqueous dispersion was diluted with methanol. 20 μl of each sample was injected at least three times into a μBondapak C-18 column, 3.9 mm×30 cm (Waters, Milford, Mass.) equipped with a C18 column guard. The column was eluted with acetonitrile/water (60:40) at 1.0 ml/min (Waters 600). Detection was by UV absorption measurement at 227 nm (Waters 490). Peak areas were calculated by interfacing the detector to an electronic integrator (Hewlett Packard). The drug concentration was calculated from standard curves.

[1] = Circular dichroism (CD) spectral analysis of peptide conformation, % helicity; assay type: physicochemical; conditions: room temperature
Experimental: According to this example, circular dichroism (CD) experiments were performed to determine the conformation changes of VIP in phospholipid micelles, pH and temperature changes, and in aqueous solutions. CD spectra were recorded on a JASCO J-700 spectropolarimeter using a fused quartz cell of 1 cm pathlength. Spectra in 0.15 N saline (pH 6.8) and 5 mM Hepes buffer (pH 7.4) were measured at a peptide concentration of 4 μM and at a lipid concentration of 1 mM. The effects of CaM, pH (6.8 or 7.4) and temperature (25° C. or 37° C.) on VIP conformation were also studied. The conformation of VIP fragments was likewise studied. All measurements were carried out at room temperature (˜25° C.) unless otherwise noted. A bandwidth of 1.0 nm and a step resolution of 0.5 nm were used to collect an average of 9 accumulations/sample at the […] (200-260 nm wavelength). The peptide spectra shown have the background buffer scans, and empty vesicle scans subtracted and were smoothed using the noise reduction function. The temperature during spectral analysis was maintained by using a circulating water bath attached to a jacket surrounding the fused quartz CD cell. The percent helical characterization of VIP was determined by a method of Haghjoo et al., Peptide Research 9 (6):327-331 (1996): % helicity=[−(θ208+4000)/29 000]*100 and are reported in table 1.
According to the example, CD was used to determine the conformation of VIP in saline, Hepes buffer and phospholipid micelles at room temperature and at 37° C. The CD spectra analysis was performed after 13 μg of human VIP incubated with 1 ml PEG-DSPE (1 μmol) micelles for 30 min at room temperature as determined by preliminary studies. A bandwidth of 1.0 nm and a step resolution of 0.5 nm were used to collect an average of 9 accumulations/sample at near UV range (200-260 nm). The temperature was maintained during spectral analysis by a circulating water bath attached to a jacket surrounding the fused quartz CD cell. The evaluation of VIP molecule conformation in SSM by using circular dichroism was successful because the distortion caused by spherical particles was eliminate due to the small size and univesicular structure of the SSM. […] The phospholipid micelles were ideal in our study of VIP conformation since it provided a hydrophobic core similar to the phospholipid bilayer of the SSL. Moreover, both the negative charge, and the hydrophilic layer provided by the PEG mimic the conditions of our SSL and make it possible to infer the VIP conformational results.
According to this example, the method of example 4 was repeated to determine the conformation of VIP in saline and phospholipid micelles plus calmodulin (CaM). CD spectra measurements were performed after 13 μg/ml of VIP was incubated with 1.0 μmol/ml of phospholipid micelles for 30 min followed by 10^−10 M CaM incubated with VIP in phospholipid micelles for 2 h at 4° C. (conjugation paper). A bandwidth of 1.0 nm and a step resolution of 0.5 nm were used to collect the average of 9 accumulations/sample at near UV range (200-260 nm).
According to this example the method of example 4 was repeated to determine the conformation of VIP fragments in saline and phospholipid micelles. CD spectra measurements were performed after incubation of VIP fragments with phospholipid micelles, at a molar concentration equivalent to VIP (i.e. 9 μg/ml for VIP10-28 fragment and 6 μg/ml for VIP1-12 fragment), for 30 min. A bandwidth of 1.0 nm and a step resolution of 0.5 nm were used to collect the average of 9 accumulations/sample at near UV range (200-260 nm). Specifically, CD spectra of human VIP fragment (1-12) and (10-28) in the presence of phospholipid micelles are shown in FIG. 5. […] These effects correlate well with the % helicity of VIP fragments determined in saline and in the presence of phospholipids (Table 1). […]

Compound: CC(=O)[C@H]1CC[C@H]2[C@@H]3CCC4=CC(=O)CC[C@]4(C)[C@H]3CC[C@]12C [progesterone]
solubility (physchem; thermodynamic from solid, solubility in 10 mg/ml DSPE-PEG): ≤ 198 µg/mL
solubility (physchem; thermodynamic from solid, solubility of progesterone in DSPE-PEG micelles): 198 ± 7 µg/mL (≈ 630 µM)
solubility (physchem; thermodynamic from solid, solubility of progesterone in bile salt micelles): 21 µg/mL

Compound: VIP1-12: VIP fragment 1-12 (HSDAVFTDNYTR; Vasoactive intestinal peptide; UniProt P01282 125-136, looked up, fragment)
Conformation from CD spectrum in the presence of phospholipid micelles (SSM) [1]: primarily random coil structure
% Helicity (in the presence of) Phospholipids [1]: 0.05%
% Helicity (in the presence of) Saline [1]: 0%
Conformation from CD spectrum in saline [1]: primarily random coil structure

Compound: calmodulin [CaM]
% Helicity (in the presence of) Phospholipids [1]: 0%
% Helicity (in the presence of) Saline [1]: 0%

Compound: NC(=O)CC[C@@H]1NC(=O)[C@H](Cc2ccccc2)NC(=O)[C@H](Cc2ccc(O)cc2)NC(=O)[C@@H](N)CSSC[C@@H](C(=O)N2CCC[C@H]2C(=O)N[C@@H](CCCN=C(N)N)C(=O)NCC(N)=O)NC(=O)[C@H](CC(N)=O)NC1=O [Vasopressin]
Conformation from CD spectrum in the presence of phospholipid micelles (SSM) [1]: primarily random coil conformation
% Helicity (in the presence of) Phospholipids [1]: 16%
% Helicity (in the presence of) Saline [1]: 8%
Conformation from CD spectrum in saline [1]: primarily random coil conformation

Further lines, results first:

solubility in 10 mg/ml DSPE-PEG (physchem): up to 200 μg/ml
Compound: C=C(C)[C@@H]1CC[C@]2(C(=O)O)CC[C@]3(C)[C@H](CC[C@@H]4[C@@]5(C)CC[C@H](O)C(C)(C)[C@@H]5CC[C@]43C)[C@@H]12 [betullinic acid]

solubility (physchem; solubility in either SSM or SSC): 250 µg/mL (≈ 547 µM)
Compound: C=C(C)[C@@H]1CC[C@]2(C(=O)O)CC[C@]3(C)[C@H](CC[C@@H]4[C@@]5(C)CC[C@H](O)C(C)(C)[C@@H]5CC[C@]43C)[C@@H]12 [betulinic acid]
